Article PMC10709440, “High-throughput ligand profile characterization in novel cell lines expressing seven heterologous insect olfactory receptors for the detection of volatile plant biomarkers” (Scientific Reports, 2023)
Values joined by “and” are separate entries in the source; they are usually repeats but may differ in a detail not shown here. Equal entries are not always repeated. Where two headings read alike, the source gives them in different places.

Assays:
[1] = tested on: OR13a; parameters: method as in earlier work; details: DoOR database value, ref DoOR, cited from earlier work
[2] = tested on: OR49b; parameters: method as in earlier work; details: DoOR database value, ref DoOR, cited from earlier work
[3] = tested on: OR98a; parameters: method as in earlier work; details: DoOR database value, ref DoOR, cited from earlier work
[4] = target: T1, Drosophila OR85b (Drosophila melanogaster, UniProt Q9VHQ7); assay: Calcium ion fluorescence (GCaMP6) assay, OR85b stable HEK293 cell line; format: cell-based; details: for Average response / OR85b response (VUAA1-normalized) at 1 μM / OR85b response (VUAA1-normalized) at 10 μM / OR85b response (VUAA1-normalized) at 100 μM: OR85b cell line; for Average response: VUAA1-normalized response, mean of biological replicates; for OR85b response (VUAA1-normalized) at 1 μM: VOC concentration 1 μM; for OR85b response (VUAA1-normalized) at 10 μM: VOC concentration 10 μM; for OR85b response (VUAA1-normalized) at 100 μM: VOC concentration 100 μM
T1 construct: expressed in transfected cells
T1 sequence (Q9VHQ7 1-390): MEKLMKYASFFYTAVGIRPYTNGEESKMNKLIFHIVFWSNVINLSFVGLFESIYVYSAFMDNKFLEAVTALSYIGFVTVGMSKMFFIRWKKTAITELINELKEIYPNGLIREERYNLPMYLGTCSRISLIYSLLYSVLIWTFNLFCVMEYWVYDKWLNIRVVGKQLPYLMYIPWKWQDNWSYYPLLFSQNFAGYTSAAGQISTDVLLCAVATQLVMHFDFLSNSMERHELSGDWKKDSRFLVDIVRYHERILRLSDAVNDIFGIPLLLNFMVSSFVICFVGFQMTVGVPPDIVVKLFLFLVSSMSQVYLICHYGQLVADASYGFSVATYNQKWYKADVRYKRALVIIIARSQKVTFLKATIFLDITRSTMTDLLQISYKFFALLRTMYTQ
T1 sequence (Q9VNB5 1-486 partner): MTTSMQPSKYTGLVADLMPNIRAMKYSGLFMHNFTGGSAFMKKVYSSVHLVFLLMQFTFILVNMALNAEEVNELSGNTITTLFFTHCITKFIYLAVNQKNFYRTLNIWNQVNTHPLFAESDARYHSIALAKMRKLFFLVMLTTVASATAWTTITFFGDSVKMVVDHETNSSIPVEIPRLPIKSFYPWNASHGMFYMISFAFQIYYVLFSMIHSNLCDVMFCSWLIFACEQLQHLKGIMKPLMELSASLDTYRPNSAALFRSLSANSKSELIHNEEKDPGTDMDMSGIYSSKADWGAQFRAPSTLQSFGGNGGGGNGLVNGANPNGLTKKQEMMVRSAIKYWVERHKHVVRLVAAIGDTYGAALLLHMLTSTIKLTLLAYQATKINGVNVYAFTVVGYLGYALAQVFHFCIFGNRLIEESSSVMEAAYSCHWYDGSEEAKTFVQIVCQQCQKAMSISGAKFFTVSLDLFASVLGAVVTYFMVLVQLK
In short: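 Responses are VUAA1-normalized ΔF: each VOC-evoked calcium signal, (FMAX−F0)/F0 over 30 s after injection, divided by the same line's mean 50 µM VUAA1 response. Cells were doxycycline-induced HEK293 with GCaMP6 and the cognate Drosophila OR, in HEPES buffer pH 7.3; ligands tested 0.01–100 μM.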

[5] = tested on: OR47a; parameters: method as in earlier work; details: DoOR database value, ref DoOR, cited from earlier work
[6] = tested on: OR85b; parameters: method as in earlier work; details: DoOR database value, ref DoOR, cited from earlier work
[7] = tested on: OR10a; parameters: method as in earlier work; details: DoOR database value, ref DoOR, cited from earlier work
[8] = HEK293, read-out: OR85b Average response (VUAA1-normalized)
[9] = HEK293, read-out: OR85b response (VUAA1-normalized response)
[10] = VOC concentration 0.15 (unit not given)
[11] = VOC concentration 0.3 (unit not given)
[12] = VOC concentration 0.6 (unit not given)
[13] = VOC concentration 1.25 (unit not given)
[14] = VOC concentration 2.5 (unit not given)
[15] = VOC concentration 5 (unit not given)
[16] = VOC concentration 10 (unit not given)
[17] = VOC concentration 20 (unit not given)
[18] = VOC concentration 40 (unit not given)
[19] = VOC concentration 60 (unit not given)
[20] = VOC concentration 80 (unit not given)
[21] = VOC concentration 100 (unit not given)
[22] = ligand concentration 1 (unit not given), threshold 0.05, below shown as 0
[23] = ligand concentration 10 (unit not given), threshold 0.05, below shown as 0
[24] = ligand concentration 100 (unit not given), threshold 0.05, below shown as 0

CCCCCC(C)=O [2-heptanone]
OR13a DoOR response [1]: 0.26
OR49b DoOR response [2]: 0.011
OR98a DoOR response [3]: 0.62
EC50 ([4]; AVERAGE EC50, from average LOG EC50, N 5): 68.9 µM
EC50 ([4]; EC50 (fitted parameter), individual biological replicates): 50.9 µM and 47.5 µM and 41.7 µM and 42.2 µM
EC50 ([4]; EC50, AVERAGE, arithmetic average of 5 replicate EC50): 110 µM
EC50 ([4]; EC50, FITTED AVERAGE CURVE, fit to the average curve): 72.2 µM
EC50 ([4]; EC50, OR85b cell line, fitted Hill equation, Hill coefficient constrained to 1, maximal response max 1): 68.9 µM
activation at 1 µM [4, 8]: 4%
activation at 10 µM [4, 8]: 20%
activation at 100 µM [4, 8]: 55%
activation at 1 µM [4, 9]: 0%
activation at 10 µM [4, 9]: 20%
activation at 100 µM [4, 9]: 55%
Emax ([4]; HEK293, read-out: VUAA1 normalized MAX response): 72%
EC50 ([4]; LOG EC50 (fitted parameter), individual biological replicates, OR85b D-R sheet): 50.9 µM and 47.5 µM and 41.7 µM and 42.2 µM
EC50 ([4]; LOG EC50, AVERAGE, average of 5 biological replicates): 68.9 µM
Average response ([4]; cc. 1 µM): 0.037
Average response ([4]; cc. 10 µM): 0.20
Average response ([4]; cc. 100 µM): 0.55
response, AVERAGE [4, 10]: 0
response, biological replicates [4, 10]: 0
response, AVERAGE [4, 11]: 0
response, biological replicates [4, 11]: 0
response, AVERAGE [4, 12]: 0.02418
response, biological replicates [4, 12]: 0 (3×) and 0.06045 (2×)
response, AVERAGE [4, 13]: 0
response, biological replicates [4, 13]: 0
response, AVERAGE [4, 14]: 0
response, biological replicates [4, 14]: 0
response, AVERAGE [4, 15]: 0.05175
response, biological replicates [4, 15]: 0 (2×) and 0.08029 and 0.08922 (2×)
response, AVERAGE [4, 16]: 0.07565
response, biological replicates [4, 16]: 0.1715 and 0 and 0.05971 and 0.07351 (2×)
response, AVERAGE [4, 17]: 0.1574
response, biological replicates [4, 17]: 0.2412 and 0.05753 and 0.1726 and 0.1579 (2×)
response, AVERAGE [4, 18]: 0.2822
response, biological replicates [4, 18]: 0.4423 and 0.101 and 0.2153 and 0.3264 (2×)
response, AVERAGE [4, 19]: 0.3295
response, biological replicates [4, 19]: 0.5597 and 0.152 and 0.2767
response, AVERAGE [4, 20]: 0.3923
response, biological replicates [4, 20]: 0.6627 and 0.1546 and 0.3278 and 0.4082 (2×)
response, AVERAGE [4, 21]: 0.3199
response, biological replicates [4, 21]: 0.2321 and 0.3319 and 0.3577 (2×)
AVERAGE MAX ([4]; average of 5 biological replicates): 0.7284
DF norm AVERAGE OR85b ([4]; concentration 1, normalized fluorescence change, values below 0.05 threshold given as 0): 0
DF norm AVERAGE OR85b ([4]; concentration 10, normalized fluorescence change, values below 0.05 threshold given as 0): 0.1962
DF norm AVERAGE OR85b ([4]; concentration 100, normalized fluorescence change, values below 0.05 threshold given as 0): 0.5508
MAX, fitted average curve ([4]; fit to the average curve): 0.6682
MAX (fitted parameter) ([4]; individual biological replicates): 1 (2×) and 0.5003 and 0.5695 and 0.5722
OR47a DoOR response [5]: 0.58
OR85b DoOR response [6]: 0.65
OR10a DoOR response [7]: 0.016

OCCc1ccccc1 [phenethyl alcohol]
OR13a DoOR response ([1]; OR13a): 0.12
OR49b DoOR response ([2]; OR49b): 0.09
OR98a DoOR response ([3]; OR98a): -0.01
OR85b response (VUAA1-normalized) at 1 μM [4]: 0.10
OR85b response (VUAA1-normalized) at 10 μM [4]: 0.0758
OR85b response (VUAA1-normalized) at 100 μM [4]: 0.00
Average response ([4]; cc. 1 µM): 0.10
Average response ([4]; cc. 10 µM): 0.0758
Average response ([4]; cc. 100 µM): 0.04
DF norm AVERAGE OR85b [4, 22]: 0.09884
DF norm AVERAGE OR85b [4, 23]: 0.07579
DF norm AVERAGE OR85b [4, 24]: 0
OR47a DoOR response ([5]; OR47a): 0.009
OR85b DoOR response ([6]; OR85b): 0.006
OR10a DoOR response ([7]; OR10a): 0.014

CCCOC(C)=O [propyl acetate]
OR13a DoOR response ([1]; OR13a): 0.14
OR49b DoOR response ([2]; OR49b): 0.023
OR98a DoOR response ([3]; OR98a): 0.50
OR85b response (VUAA1-normalized) at 1 μM [4]: 0.0538
OR85b response (VUAA1-normalized) at 10 μM [4]: 0.00
OR85b response (VUAA1-normalized) at 100 μM [4]: 0.00
Average response ([4]; cc. 1 µM): 0.0538
Average response ([4]; cc. 10 µM): 0.0361
Average response ([4]; cc. 100 µM): 0.00
DF norm AVERAGE OR85b [4, 22]: 0.05375
DF norm AVERAGE OR85b [4, 23]: 0
DF norm AVERAGE OR85b [4, 24]: 0
OR47a DoOR response ([5]; OR47a): 0.68
OR85b DoOR response ([6]; OR85b): 0.49
OR10a DoOR response ([7]; OR10a): 0.18

C=CCc1ccc(O)c(OC)c1 [eugenol]
OR13a DoOR response [1]: 0.024
OR49b DoOR response [2]: 0.002
OR98a DoOR response [3]: 0.15
activation at 1 µM [4, 9]: 0%
activation at 10 µM [4, 9]: 0%
activation at 100 µM [4, 9]: 9%
Average response ([4]; cc. 1 µM): 0.00
Average response ([4]; cc. 10 µM): 0.0188
Average response ([4]; cc. 100 µM): 0.09
DF norm AVERAGE OR85b [4, 22]: 0
DF norm AVERAGE OR85b [4, 23]: 0
DF norm AVERAGE OR85b [4, 24]: 0.09022
OR47a DoOR response [5]: -0.013
OR85b DoOR response [6]: 0.053
OR10a DoOR response [7]: 0.15

CCOC(=O)c1ccccc1 [ethyl benzoate]
OR13a DoOR response [1]: 0.043
OR49b DoOR response [2]: 0.002
OR98a DoOR response [3]: 0.78
activation at 1 µM [4, 9]: 0%
activation at 10 µM [4, 9]: 0%
activation at 100 µM [4, 9]: 0%
Average response ([4]; cc. 1 µM): 0.0211
Average response ([4]; cc. 10 µM): 0.0371
Average response ([4]; cc. 100 µM): 0.0138
DF norm AVERAGE OR85b [4, 22]: 0
DF norm AVERAGE OR85b [4, 23]: 0
DF norm AVERAGE OR85b [4, 24]: 0
OR47a DoOR response [5]: 0.06
OR85b DoOR response [6]: -0.014
OR10a DoOR response [7]: 0.68
